Activity calls are given as the source filed them. No cut-off for these calls is given here.
Target: Cyclin-dependent kinase 2 (Homo sapiens) (UniProt P24941)
Test: Binding affinity to human CDK2

## O=c1c(O)c(-c2ccc(O)c(O)c2)oc2c(O[C@@H]3O[C@H](CO)[C@@H](O)[C@H](O)[C@H]3O)c(O)cc(O)c12
  Activity: Active
